Data as given in the supplement of paper PMC10307832.

What was measured:
Assay in all cases: relative viability (nuclei count vs DMSO), 5 days (fraction); higher = more cells survive
Vismodegib + Pictilisib = compound: CS(=O)(=O)c1ccc(C(=O)Nc2ccc(Cl)c(-c3ccccn3)c2)c(Cl)c1 [Vismodegib] + CS(=O)(=O)N1CCN(Cc2cc3nc(-c4cccc5[nH]ncc45)nc(N4CCOCC4)c3s2)CC1 [Pictilisib] (partner 1 µM)
Method in brief: (§1)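 One day after seeding in 1536-well plates, lung cancer cell lines were dosed by pin tool. Dosing was either single-drug or a fixed anchor-drug dose plus five library-drug doses (not always all listed) in √10 steps. After 5 days, nuclei were stained in one fix-and-stain step and counted on 4× images, and relative viability is the nuclei count of treated wells over that of vehicle wells, given as the median of duplicate plates.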

VE-821 + OSI-027 = compound: CS(=O)(=O)c1ccc(-c2cnc(N)c(C(=O)Nc3ccccc3)n2)cc1 [VE-821] + COc1cccc2cc(-c3nc([C@H]4CC[C@H](C(=O)O)CC4)n4ncnc(N)c34)[nH]c12 [OSI-027] (partner 0.5 µM)
Method in brief: as §1

VE-821 + Pemetrexed = compound: CS(=O)(=O)c1ccc(-c2cnc(N)c(C(=O)Nc3ccccc3)n2)cc1 [VE-821] + Nc1nc2[nH]cc(CCc3ccc(C(=O)N[C@@H](CCC(=O)O)C(=O)O)cc3)c2c(=O)[nH]1 [Pemetrexed] (partner 0.2 µM)
Method in brief: as §1

VE-821 + Vorinostat = compound: CS(=O)(=O)c1ccc(-c2cnc(N)c(C(=O)Nc3ccccc3)n2)cc1 [VE-821] + O=C(CCCCCCC(=O)Nc1ccccc1)NO [Vorinostat] (partner 1 µM)
Method in brief: as §1

Cell Line | relative viability (Vismodegib + Pictilisib; first compound 0.08 µM) | relative viability (Vismodegib + Pictilisib; first compound 0.253 µM) | relative viability (Vismodegib + Pictilisib; first compound 0.8 µM) | relative viability (Vismodegib + Pictilisib; first compound 2.53 µM) | relative viability (Vismodegib + Pictilisib; first compound 8 µM) | relative viability (VE-821 + OSI-027; first compound 0.08 µM) | relative viability (VE-821 + OSI-027; first compound 0.253 µM) | relative viability (VE-821 + OSI-027; first compound 0.8 µM) | relative viability (VE-821 + OSI-027; first compound 2.53 µM) | relative viability (VE-821 + OSI-027; first compound 8 µM) | relative viability (VE-821 + Pemetrexed; first compound 0.08 µM) | relative viability (VE-821 + Pemetrexed; first compound 0.253 µM) | relative viability (VE-821 + Pemetrexed; first compound 0.8 µM) | relative viability (VE-821 + Pemetrexed; first compound 2.53 µM) | relative viability (VE-821 + Pemetrexed; first compound 8 µM) | relative viability (VE-821 + Vorinostat; first compound 0.08 µM) | relative viability (VE-821 + Vorinostat; first compound 0.253 µM) | relative viability (VE-821 + Vorinostat; first compound 0.8 µM) | relative viability (VE-821 + Vorinostat; first compound 2.53 µM) | relative viability (VE-821 + Vorinostat; first compound 8 µM)
HCC-78 | 0.19 | 0.189 | 0.176 | 0.206 | 0.234 | 0.385 | 0.349 | 0.372 | 0.401 | 0.326 | 0.875 | 0.904 | 0.903 | 0.853 | 0.89 | 0.388 | 0.53 | 0.393 | 0.493 | 0.417
HCC-366 | 0.16 | 0.17 | 0.148 | 0.137 | 0.131 | 0.931 | 0.789 | 0.605 | 0.492 | 0.138 | 0.159 | 0.127 | 0.144 | 0.0815 | 0.06 | 0.426 | 0.269 | 0.28 | 0.121 | 0.0472
HCC-827 | 1.22 | 1.06 | 0.834 | 0.854 | 0.97 | 0.845 | 0.865 | 0.886 | 0.838 | 0.683 | 0.248 | 0.306 | 0.251 | 0.23 | 0.213 | 0.728 | 0.779 | 0.856 | 0.837 | 0.722
HOP-62 | 0.751 | 0.703 | 0.759 | 0.815 | 0.656 | 1.04 | 0.809 | 0.73 | 0.925 | 0.697 | 0.305 | 0.336 | 0.244 | 0.235 | 0.223 | 0.766 | 0.542 | 0.644 | 0.771 | 0.469
IA-LM | 0.363 | 0.354 | 0.277 | 0.281 | 0.379 |  |  |  |  |  |  |  |  |  |  | 0.951 | 0.976 | 0.941 | 1.26 | 0.903
LC-2-ad | 0.49 | 0.503 | 0.513 | 0.643 | 0.421 | 0.878 | 0.945 | 0.986 | 0.928 | 0.789 | 0.265 | 0.286 | 0.272 | 0.264 | 0.24 | 0.758 | 0.748 | 0.768 | 0.8 | 0.659
LCLC-97TM1 |  |  | 0.125 |  | 0.158 | 0.564 | 0.506 | 0.669 | 0.786 | 0.668 | 0.191 | 0.186 | 0.164 | 0.189 | 0.125 | 0.84 | 0.65 | 0.879 | 1.01 | 0.327
LCLC-103H | 0.606 | 0.533 | 0.574 | 0.633 | 0.646 | 0.478 | 0.478 | 0.404 | 0.468 | 0.365 | 0.47 | 0.439 | 0.518 | 0.475 | 0.437 | 0.863 | 0.772 | 0.783 | 0.834 | 0.592
LK-2 | 0.648 | 0.619 | 0.515 | 0.551 | 0.602 | 0.194 | 0.203 | 0.245 | 0.221 | 0.176 | 0.357 | 0.295 | 0.299 | 0.267 | 0.262 | 0.335 | 0.253 | 0.416 | 0.408 | 0.397
LOU-NH91 | 0.556 | 0.515 | 0.516 | 0.482 | 0.532 | 0.731 | 0.71 | 0.766 | 0.778 | 0.747 | 0.385 | 0.355 | 0.345 | 0.323 | 0.4 | 0.885 | 0.879 | 0.919 | 0.966 | 0.825
LU99A | 0.319 | 0.39 | 0.256 | 0.313 | 0.324 | 0.298 | 0.304 | 0.292 | 0.257 | 0.244 | 0.191 | 0.156 | 0.16 | 0.125 | 0.113 | 0.515 | 0.462 | 0.471 | 0.431 | 0.299
NCI-H522 |  |  |  |  |  | 0.718 | 0.779 | 0.76 | 0.65 | 0.677 | 1.28 | 1 | 0.909 | 1.16 | 0.778 | 1.02 | 0.811 | 0.921 | 0.994 | 0.732
NCI-H727 | 0.525 | 0.395 | 0.277 | 0.257 | 0.402 | 0.721 | 0.624 | 0.619 | 0.54 | 0.355 |  |  |  |  |  | 1.12 | 1.28 | 1.16 | 1.02 | 1.16
NCI-H1299 | 0.761 | 0.815 | 0.72 | 0.787 | 0.96 |  |  |  |  |  |  |  |  |  |  |  |  |  |  | 
NCI-H1563 | 0.649 | 0.591 | 0.647 | 0.643 | 0.72 | 0.736 | 0.727 | 0.713 | 0.751 | 0.718 | 0.778 | 0.7 | 0.613 | 0.761 | 0.481 |  |  |  |  | 
NCI-H1623 |  |  |  |  |  | 0.48 | 0.489 | 0.543 | 0.454 | 0.379 |  |  |  |  |  |  |  |  |  | 
NCI-H1648 |  |  |  |  |  | 0.291 | 0.25 | 0.244 | 0.246 | 0.239 | 0.977 |  | 0.569 | 0.63 | 0.611 | 0.483 |  | 0.485 | 0.532 | 0.641
NCI-H1703 | 0.223 | 0.216 | 0.302 | 0.254 | 0.249 |  |  |  |  |  |  |  |  |  |  |  |  |  |  | 
NCI-H1792 | 0.28 | 0.299 | 0.23 | 0.227 | 0.28 | 0.725 | 0.786 | 0.608 | 0.447 | 0.484 | 1.19 | 0.59 | 0.865 | 0.996 | 0.568 |  |  |  |  | 
NCI-H2342 |  |  |  |  |  | 0.648 | 0.54 | 0.639 | 0.584 | 0.527 | 0.792 | 0.777 | 0.804 | 0.736 | 0.667 | 0.702 | 0.673 | 0.723 | 0.774 | 0.841
SW 900 |  |  |  |  |  | 0.459 | 0.444 | 0.527 | 0.552 | 0.382 | 0.494 | 0.504 | 0.461 | 0.46 | 0.221 | 0.503 | 0.449 | 0.453 | 0.305 | 0.341
